Measured values: article PMC4923258, “A Recombinant Human Pluripotent Stem Cell Line Stably Expressing Halide-Sensitive YFP-I152L for GABAAR and GlyR-Targeted High-Throughput Drug Screening and Toxicity Testing” (Frontiers in Molecular Neuroscience, 2016)
Several values for one entry are separate records, joined by “and”; a condition that tells them apart may be missing. Equal values may be shown once. Read-outs that look alike come from different tables or passages of the source.

Experiments:
GlyR [1] = type: cell-based, human
Description: (§1) To this end, human pluripotent NT2-YFP-I152L cells were differentiated into neuronal NT2-N-YFP-I152L cells as described in the Methods section and were seeded at a density of 2 × 10^4 cells in each well of a 96-well plate. 48 h later, the culture medium was completely removed and was replaced by 50 μl NaCl control solution.
(§2) Approximately 1 h prior to commencement of experiments culture media in 96-well plates was removed manually and was replaced by 50 μl standard control solution, which contained (in mM) NaCl 140, KCl 5, CaCl2 2, MgCl2 1, HEPES 10, and glucose 10 (pH 7.4, NaOH) upon washing the cells once in 50 μl standard control solution. […] All drugs were diluted from stocks at the day of the experiment and experiments were conducted at room temperature.
(§3) The experimental protocol involved imaging each well for 30 s at 2 Hz acquisition rate capturing the initial fluorescence intensity in the control situation as well as the test situation upon receptor activation, respectively. Liquid handling was performed manually.
(§4) Cells depicted in fluorescence micrographs were selected manually based on strongest quench for low and intermediate concentrations and based on cell morphology in experiments where high drug concentrations were applied. Registered images of fluorescent cells were segmented and quantitatively analyzed using NIS-Elements software (Nikon, Japan). The fluorescence signal of identified cells was measured in images acquired before and after the addition of agonist solution as the mean of all pixel values within the area of a cell. “% fluorescence quench” in chloride imaging experiments is defined as %fluorescence quench=(Finit−Ffinal)∗100/Finit where Finit and Ffinal are the initial and final values of fluorescence, respectively.
(§5) Individual concentration responses were constructed by pooling results from ten cells in one well exposed to agonist solution. Concentration-response relationships were fitted with the following equation: F= Fmax+Fmin− Fmax/1+([Agonist]/EC50)^nH where F is the fluorescence corresponding to a particular agonist concentration, [Agonist]; Fmin and Fmax are the minimal and maximal fluorescence values, respectively; EC50 is the concentration that elicits half-maximal activation; and nH is the Hill coefficient. Curve fits were performed using a least squares fitting routine (Origin 7G, OriginLab Corporation). All averaged results are expressed as mean ± SD.

GABAAR [2] = type: cell-based, human; conditions: 1 μM GABA
Description: as §1, §2, §3, §4, §5

GABAAR [3] = type: cell-based, human; conditions: GABA concentration-response, mean ± SD, n = 10
Description: (§6) To assess whether the generated recombinant stem cell line is suitable to chloride imaging and functional profiling of GABAARs and GlyRs, NT2-YFP-I152L cells were differentiated into neuronal NT2-N- YFP-I152L cells as described in the Methods section and were seeded at defined density of 2 × 10^4 cells in each well of a 96-well plate. Two days later and approximately 1 h prior to fluorescence imaging, the culture medium was completely removed and was replaced by 50 μl NaCl control solution. The standard NaCl control solution contained (in mM): NaCl 140, KCl 5, CaCl2 2, MgCl2 1, HEPES 10, glucose 10, pH 7.4 using NaOH. The 96-well plate was placed onto the motorized stage of a high-content imaging system and cells were imaged in control solution to record cellular YFP fluorescence in unquenched state. Because YFP-I152L is almost insensitive to chloride, its fluorescence intensity is highest in NaCl solution allowing for optimal focussing into the optical layer of cells. […] Fluorescence quench was calculated at single cell level by quantitative analysis as described in the Methods section. […]
(§7) The experimental protocol involved imaging each well for 30 s at 2 Hz acquisition rate capturing the initial fluorescence intensity in the control situation as well as the test situation upon receptor activation, respectively. […]

GABAAR [4] = experiment: Proportion of cells with at least 20% fluorescence quench at saturating GABA; type: cell-based, human; conditions: for Percentage of non-treated NT2-YFP-I152L stem cells responding with at least 20% fluorescence quench: 1 mM saturating GABA; for GABAAR-positive cells as percentage of the overall population / Percentage of cells per image with fluorescence quench of at least 20%: saturating GABA
Source text: (§8) The applicability of the established recombinant in vitro model for high-throughput GABAAR and GlyR-targeted screening in the context of lead identification and NT/DNT testing strongly depends on the proportion of GABAAR and GlyR positive NT2-N cells in the whole cell population. A very small percentage of GABAAR and GlyR expressing NT2-N cells requires a large number of individual experiments including technical and biological replicates to be conducted in order to obtain statistically sound results, potentially compromising the usability of the established cell line for the envisioned application. […] The threshold of 20% fluorescence quench was chosen because, from our experience, any measured cellular fluorescence change within a range of −20 to 20% reflects biological noise typical to the employed assay. As a starting point toward analysing the proportion of GABAAR and GlyR-positive cells we segmented the images of a total of 24 individual experiments from two different differentiation batches (GABAAR, batch #1: n = 7, batch #2: n = 6; GlyR, batch #1: n = 6, batch #2: n = 5) using a modified version of DetecTIFF^© software (Gilbert et al., [2009c]) employing two individual sets of parameters for the identification of small neuronal NT2-N-YFP-I152L and larger non-neuronal NT2-YFP-I152L cells. […] Exemplary segmentation masks created from the image shown in Figure 6A for quantitative analysis of fluorescence intensity and calculation of “% fluorescence quench” in small neuronal NT2-N-YFP-I152L cells and large non-neuronal cells are depicted in Figures 6B,C.
(§9) Images of fluorescent cells were segmented and quantitatively analyzed using a modified version of DetecTIFF® software (Gilbert et al., [2009c]). In brief, images were segmented using an iterative size and intensity-based thresholding algorithm and the fluorescence signal of identified cells was calculated as the mean of all pixel values within the area of a cell.

GlyR [5] = conditions: mean ± SD, n = 10; for nH (Hill coefficient): glycine concentration-response
Description: as §6, §7
Cells depicted in fluorescence micrographs were selected manually based on strongest quench for low and intermediate concentrations and based on cell morphology in experiments where high drug concentrations were applied. Registered images of fluorescent cells were segmented and quantitatively analyzed using NIS-Elements software (Nikon, Japan). The fluorescence signal of identified cells was measured in images acquired before and after the addition of agonist solution as the mean of all pixel values within the area of a cell. “% fluorescence quench” in chloride imaging experiments is defined as %fluorescence quench=(Finit−Ffinal)∗100/Finit where Finit and Ffinal are the initial and final values of fluorescence, respectively. […]

GlyR [6] = conditions: for Percentage of non-treated NT2-YFP-I152L stem cells responding with at least 20% fluorescence quench: 1 mM saturating glycine
Source text: as §8, §9

GABAARs = test system: GABAARs; set-up: method as in Kumamoto and Murata, 1995; conditions: ref Kumamoto and Murata, 1995; cited from earlier work
GlyRs = test system: GlyRs; set-up: method as in Harvey et al., 1999; conditions: ref Harvey et al., 1999, cited from earlier work
[7] = read-out: IC50 (Glycine), 3 μM glycine, n = 10
[8] = 3 μM glycine, n = 10, read-out: IC50 (Glycine)

CN1CCc2cc3c(cc2[C@H]1[C@@H]1OC(=O)c2c1ccc1c2OCO1)OCO3 [Bicuculline, bicuculline]
Sensitivity of glycine-induced I- influx compared to GABA-dependent anion influx (lower) (GlyR [1]; ratio of IC50 vs glycine and IC50 vs GABA): about 10 fold | IC50 (GlyR [1]; [7]): 13.4 µM | IC50 (GABAAR [2]; read-out: IC50 (GABA), n = 10): 1.1 µM

N#Cc1nn(-c2c(Cl)cc(C(F)(F)F)cc2Cl)c(N)c1[S+]([O-])C(F)(F)F (stereo not drawn) [Fipronil, fipronil]
IC50 (GlyR [1]; [8]): 1.5 µM | IC50 (GABAAR [2]; read-out: IC50 (GABA), n = 10): 10.8 µM

NCCCC(=O)O [GABA, γ-aminobutyric acid]
nH (Hill coefficient) (GABAAR [3]): 1.8 ± 0.4 and 1.8 | Percentage of non-treated NT2-YFP-I152L stem cells responding with at least 20% fluorescence quench (GABAAR [4]; replicate #1): 0.62% | Percentage of non-treated NT2-YFP-I152L stem cells responding with at least 20% fluorescence quench (GABAAR [4]; replicate #2): 0.37% | GABAAR-positive cells as percentage of the overall population (GABAAR [4]; batch #1): 17 ± 8% | GABAAR-positive cells as percentage of the overall population (GABAAR [4]; batch #2): 21 ± 9% | Percentage of cells per image with fluorescence quench of at least 20% (GABAAR [4]; large non-neuronal cells, batch #1, n = 7): 3 ± 1% | Percentage of cells per image with fluorescence quench of at least 20% (GABAAR [4]; large non-neuronal cells, batch #2, n = 6): 6 ± 2% | Percentage of cells per image with fluorescence quench of at least 20% (GABAAR [4]; small cells (NT2-N-YFP-I152L), batch #1, n = 7): 28 ± 13% | Percentage of cells per image with fluorescence quench of at least 20% (GABAAR [4]; small cells (NT2-N-YFP-I152L), batch #2, n = 6): 32 ± 12%

NCC(=O)O [Glycine, glycine]
nH (Hill coefficient) (GlyR [5]): 1.5 | nH (Hill coefficient) (GlyR [5]; listed as glycine): 1.5 ± 0.2 | EC50 (GlyR [5]; read-out: EC50 (half-maximal activation concentration), glycine 0.1-1000 μM in NaI solution, quench 30 s after activation): 4.3 µM | Percentage of cells per image with fluorescence quench of at least 20% (GlyR [6]): 36 ± 14% and 35 ± 7% | Percentage of non-treated NT2-YFP-I152L stem cells responding with at least 20% fluorescence quench (GlyR [6]; replicate #1): 0.68% | Percentage of non-treated NT2-YFP-I152L stem cells responding with at least 20% fluorescence quench (GlyR [6]; replicate #2): 0.92% | GlyR-positive cells as percentage of the overall population (GlyR [6]; saturating glycine, batch #1): 20 ± 9% | GlyR-positive cells as percentage of the overall population (GlyR [6]; saturating glycine, batch #2): 19 ± 4% | Percentage of cells per image with fluorescence quench of at least 20% (GlyR [6]; saturating glycine, large non-neuronal cells, batch #1, n = 6): 2 ± 1% | Percentage of cells per image with fluorescence quench of at least 20% (GlyR [6]; saturating glycine, large non-neuronal cells, batch #2, n = 5): 4 ± 2%

Cl[C@H]1[C@H](Cl)[C@@H](Cl)[C@@H](Cl)[C@H](Cl)[C@H]1Cl [Lindane, lindane]
IC50 (GlyR [1]; [8]): 0.0781 µM | Inhibition of GABA-induced anion influx (in words) (GABAAR [2]): no dose-dependent inhibitory activity

O=C1C[C@@H]2OCC=C3CN4CC[C@]56c7ccccc7N1[C@H]5[C@H]2[C@H]3C[C@H]46 [Strychnine, strychnine]
IC50 (GlyR [1]; [7]): 0.0172 µM | Inhibition of GABA-induced anion influx (in words) (GABAAR [2]): specifically inhibited glycine but not GABA-induced anion-influx

[Cl-].[Cl-].[Zn+2] [Zinc, zinc chloride]
Concentrations inhibiting GABAARs (GABAARs): > 10 µM | Concentrations at which inhibition of glycine-induced anion influx was observed (GlyR [1]; 3 μM glycine): > 100 µM | IC50 (GlyR [1]; 3 μM glycine, zinc 10 nM-1 mM, could not be calculated, presumed, read-out: IC50 (glycine-induced anion influx)): > 1000 µM | Increase of glycine-induced fluorescence quench (GlyR [1]; in presence of 1 and 10 μM zinc, not significant): about 10% | Concentrations at which inhibition of GABA-induced anion influx was observed (GABAAR [2]): > 100 µM | IC50 (GABAAR [2]; zinc 10 nM-1 mM, could not be calculated, presumed, read-out: IC50 (GABA-induced anion influx)): > 1000 µM | Concentrations inhibiting glycine-activated currents (GlyRs; high concentrations): > 100 µM | Concentrations potentiating glycine-activated currents (GlyRs; low concentrations): < 10 µM

picrotoxin
IC50 (GlyR [1]; [8]): 1.1 µM | Sensitivity of GlyR compared to GABAARs (higher) (GlyR [1]; ratio of IC50 vs GABA and IC50 vs glycine): approximately 5 fold | IC50 (GABAAR [2]; read-out: IC50 (GABA), n = 10): 5.8 µM
